Measurements reported in US10112978B2, “Peptide and use thereof” (OSAKA UNIVERSITY, priority 2014, dated 2018).
Entries after “also recorded” stand apart in the source; their conditions may differ.

What was measured:
THP-1 cells = test: CD86 and CD54 expression in THP-1 cells (flow cytometry, RFI); format: cell-based, human; settings: overnight culture, relative fluorescence intensity
Description: THP-1 cells were seeded at a density of 2.0×10^5 cells/mL in 50 mL of RPMI1640 medium containing 10% FBS and 0.05 mM mercaptoethanol in a 75-cm^2 flask, and precultured for 48 hours.
The precultured THP-1 cells were harvested by centrifugation and suspended at 2.0×10^6 cells/mL in RPMI1640 medium containing 10% FBS and 0.05 mM mercaptoethanol, and the cell suspension was added to a 24-well plate at 500 μL/well. Test peptides were separately dissolved in the same medium as above, and 500 μL of each of the solutions was added to separate wells containing the cell suspension.
After overnight culture, the cells were harvested by centrifugation and washed twice with PBS containing 0.1% BSA (FACS buffer). The cells were then dispersed in 600 μL of FACS buffer containing 0.01% human γ-globulin solution (Sigma, G2388), and incubated at 4° C. for 10 minutes for blocking of Fc receptors.
After that, the cell suspension was divided into three 180-μL aliquots in 1.5-mL tubes, the tubes were centrifuged, and the cell pellets were prepared for the reaction with antibodies. To the cell pellets, FITC-labeled antibody solutions separately diluted to appropriate concentrations in FACS buffer were added in a volume of 50 μL, and incubation was performed at 4° C. for 30 minutes. The antibodies used were CD86 antibody (Pharmingen; Cat#555657), CD54 antibody (Dako; Cat# F7143) and isotype control (Mouse IgG) antibody (Dako; Cat#X0927). After the 30-minute incubation, the cells were harvested by centrifugation and washed twice with FACS buffer. The cells harvested by centrifugation were dispersed in 200 μL of FACS buffer containing 0.625 μg/mL propidium iodide, and the expression levels of the cell surface antigens on 1×10^4 viable cells were measured by flow cytometry. Forward and side scatter gating was not used for the analysis, and the relative fluorescence intensity (RFI) was calculated from the measured mean fluorescence intensities (MFI) by the following formula. […]
When the viability of the non-treated control cells (vehicle treatment cells) was 90% or more, the test was considered valid. In the case where the cell viability at a particular sample concentration used in the test was lower than 50%, the data of the CD54 level at the concentration was excluded from the evaluation.

inflammasomes = test: Inflammasome activation: IL-1β and TNFα production in NLRP3-knockdown and control siRNA THP-1 cells; format: cell-based, human; settings: OSK-1 10 μg/mL, 16 hours
Description: THP-1 cells were transfected with a siRNA against the inflammasome component NLRP3 (NOD-like receptor family, pyrin domain containing 3) (final concentration: 100 nM, Hs_CIAS 1_6 and Hs_CIAS 1_9, manufactured by QIAGEN) or a control siRNA using a transfection reagent (6 μL/well, HiPerFect Transfection Reagent, manufactured by QIAGEN). After overnight culture, the expression level of NLRP3 was determined by western blotting.
Each type of the THP-1 cells was suspended at 1×10^6 cells/mL in RPMI1640 medium containing 1 μg/mL LPS and 10% FBS, and incubated in a CO2 incubator for 3 hours for cell priming. The cell suspension was centrifugated, the cells were resuspended at 1×10^6 cells/mL in RPMI1640 medium containing 10% FBS, and the cell suspension was added to a 24-well plate at 500 μL/well. An OSK-1 solution was prepared at a 2-fold higher concentration than the final concentration in RPMI1640 medium containing 10% FBS and added to the plate at 500 μL/well. After 16 hours, the culture supernatant was harvested, and the IL-1β and TNFα concentrations in the supernatant were measured by ELISA.

C57/BL6 mice = test: Adjuvant effect in mice (anti-Ang II antibody titer after Ang II-KLH vaccine); format: in vivo; settings: Ang II-KLH 2 μg/animal + OSK-1 100 μg/animal intracutaneously 3 times at 2-week intervals
Description: For the Freund's adjuvant group, complete Freund's adjuvant was used at the first administration, and incomplete Freund's adjuvant was used at the second and third administration. Blood was drawn before the first administration and 2, 4, 6 and 8 weeks after the first administration, and the anti-Ang II antibody titer was measured.
The antibody titer was measured in the same manner as in Example 7.

beagles = test: Adjuvant effect in dogs (anti-Ang II antibody titer after Ang II-KLH vaccine); format: in vivo; settings: Ang II-KLH 25 μg/animal + OSK-1 500 μg/animal intracutaneously twice at a 2-week interval
Description: The adjuvant effect of OSK-1 was compared with that of the conventional Freund's adjuvant in dogs. Ang II-KLH (angiotensin II-keyhole limpet hemocyanin) as a vaccine (25 μg/animal) and OSK-1 (500 μg/animal) or Freund's adjuvant (250 μL/animal) as an adjuvant were intracutaneously administered to beagles twice at a 2-week interval (2 animals per group). For the Freund's adjuvant group, complete Freund's adjuvant was used at the first administration, and incomplete Freund's adjuvant was used at the second administration. Blood was drawn before the first administration and 2 and 4 weeks after the first administration, and the anti-Ang II antibody titer was measured.
The serum separated from the blood was serially diluted in 5% skim milk/PBS, and the diluted sera were added to an Ang II-BSA-coated 96-well ELISA plate. The plate was allowed to stand at 4° C. overnight. The wells were washed with PBS-T, an HRP-labeled anti-mouse IgG antibody diluted in 5% skim milk/PBS was added to the wells. The plate was incubated with agitation at room temperature for 3 hours. The wells were washed with PBS-T, and a TMB solution was added to the wells. The plate was allowed to stand under protection from light for 30 minutes, and 0.5 N H2SO4 was added to the wells to stop the reaction. The absorbance at 450 nm was measured and used for antibody titer comparison.

[1] = test system: LPS-primed RAW 264.7 cells; test: Cytokine production in LPS-primed RAW 264.7 cells (ELISA); format: cell-based, mouse; settings: about 16 hours
Description: RAW 264.7 cells were suspended at 1×10^6 cells/mL in DMEM medium containing 50 ng/mL LPS and 10% FBS, and incubated in a CO2 incubator for 3 hours for cell priming. The cell suspension was centrifugated, the cells were resuspended at 1×10^6 cells/mL in DMEM medium containing 10% FBS, and the cell suspension was added to a 24-well plate at 500 μL/well. An OSK-1 solution was prepared at a 2-fold higher concentration than the final concentration in DMEM medium containing 10% FBS and added to the plate at 500 μL/well. After about 16 hours, the culture supernatant was harvested, and the cytokine concentrations in the supernatant were measured by ELISA.

ELKLIFLHRLKRLRKRLKRK (Ac-ELKLIFLHRLKRLRKRLKRK-NH2) [OSK-1]
expression of CD54 (THP-1 cells): strongly induced; also recorded: comparable or superior to that of muramyl dipeptide (MDP); also recorded: more highly active for inducing CD54 expression than SR-07 and SR-08 | expression of CD86 (THP-1 cells): strongly induced; also recorded: comparable or superior to that of muramyl dipeptide (MDP) | production of IL-1β (inflammasomes; LPS-primed NLRP3-knockdown THP-1 cells): the induction of IL-1β production by OSK-1 was inhibited | production of TNFα (inflammasomes; NLRP3-knockdown and control siRNA THP-1 cells): induced by OSK-1 regardless of whether NLRP3 expression was knocked down or not | anti-Ang II antibody titer (C57/BL6 mice): increase in the anti-Ang II antibody titer was observed; also recorded: smaller than that in the Freund's adjuvant (FA) group, but comparable to that in the alum group | anti-Ang II antibody titer (beagles): increase in the anti-Ang II antibody titer was observed | production of the cytokines (IL-1β, IL-18, TNFα and IL-6) [1]: induced the production of the cytokines in the LPS-primed RAW 264.7 cells in an OSK-1 concentration dependent manner
